Species: Rattus norvegicus
Assay: DrugMatrix - Regimen: Daily Repeat
Format: toxicity, organism-based, Sprague-Dawley
Parameters: regimen Daily Repeat, gender Male, age 6-8 weeks
Conditions: in vivo, po, route oral GAVAGE, vehicle .5 % CMC; for ABSOLUTE BASOPHIL / ABSOLUTE EOSINOPHIL / ABSOLUTE LYMPHOCYTE / ABSOLUTE MONOCYTE / ABSOLUTE SEGMENTED NEUTROPHIL / BASOPHIL / EOSINOPHIL / ERYTHROCYTE COUNT / HEMATOCRIT / HEMOGLOBIN / LEUKOCYTE COUNT / LYMPHOCYTE / MEAN CORPUSCULAR HEMOGLOBIN / MEAN CORPUSCULAR HEMOGLOBIN CONCENTRATION / MEAN CORPUSCULAR VOLUME / MONOCYTE / NEUTROPHIL / NUCLEATED RED BLOOD CELLS / PLATELET COUNT: tissue Blood; for ALANINE AMINOTRANSFERASE / ALBUMIN / ALKALINE PHOSPHATASE / ASPARTATE AMINOTRANSFERASE / BLOOD UREA NITROGEN / CARBON DIOXIDE / CHLORIDE / CHOLESTEROL / CREATINE PHOSPHOKINASE / CREATININE / GLUCOSE / LACTATE DEHYDROGENASE / LIPASE / PHOSPHORUS / POTASSIUM / SODIUM / TOTAL BILIRUBIN / TOTAL PROTEIN / URIC ACID: tissue Plasma
[1] = 1 mg/kg, 120 h, dose level Low, time 5 day
[2] = 1300 mg/kg, 72 h, dose level High, time 3 day
[3] = 1300 mg/kg, 120 h, dose level High, time 5 day

CCOc1nc2cccc(C(=O)O)c2n1Cc1ccc(-c2ccccc2-c2nnn[nH]2)cc1
ABSOLUTE BASOPHIL [1]: 0 CELLS/uL | ABSOLUTE EOSINOPHIL [1]: 0 CELLS/uL | ABSOLUTE LYMPHOCYTE [1]: 10713.33 CELLS/uL | ABSOLUTE MONOCYTE [1]: 81.33 CELLS/uL | ABSOLUTE SEGMENTED NEUTROPHIL [1]: 1172 CELLS/uL | BASOPHIL [1]: 0% | EOSINOPHIL [1]: 0% | ERYTHROCYTE COUNT [1]: 5.35 x10E6/uL | HEMATOCRIT [1]: 34.57% | HEMOGLOBIN [1]: 13.63 G/DL | LEUKOCYTE COUNT [1]: 11.97 x10E3/uL | LYMPHOCYTE [1]: 89.67% | MEAN CORPUSCULAR HEMOGLOBIN [1]: 25.5 pg | MEAN CORPUSCULAR HEMOGLOBIN CONCENTRATION [1]: 39.43 G/DL | MEAN CORPUSCULAR VOLUME [1]: 64.67 fL | MONOCYTE [1]: 0.67% | NEUTROPHIL [1]: 9.67% | NUCLEATED RED BLOOD CELLS [1]: 0 /100WBC | PLATELET COUNT [1]: 1267.33 x10E3/uL | ALANINE AMINOTRANSFERASE [1]: 54 u/L | ALBUMIN [1]: 4.1 G/DL | ALKALINE PHOSPHATASE [1]: 389.33 u/L | ASPARTATE AMINOTRANSFERASE [1]: 76.67 u/L | BLOOD UREA NITROGEN [1]: 18.33 mg/dL | CARBON DIOXIDE [1]: 27 mmol/L | CHLORIDE [1]: 104.33 MEQ/L | CHOLESTEROL [1]: 70.33 mg/dL | CREATINE PHOSPHOKINASE [1]: 187.67 u/L | CREATININE [1]: 0.19 mg/dL | GLUCOSE [1]: 161.33 mg/dL | LACTATE DEHYDROGENASE [1]: 120.67 u/L | LIPASE [1]: 10.67 u/L | PHOSPHORUS [1]: 12.2 mg/dL | POTASSIUM [1]: 5.83 MEQ/L | SODIUM [1]: 144.5 MEQ/L | TOTAL BILIRUBIN [1]: 0.2 mg/dL | TOTAL PROTEIN [1]: 5.97 G/DL | URIC ACID [1]: 1.6 mg/dL | ABSOLUTE BASOPHIL [2]: 0 CELLS/uL | ABSOLUTE EOSINOPHIL [2]: 27.67 CELLS/uL | ABSOLUTE LYMPHOCYTE [2]: 7595.67 CELLS/uL | ABSOLUTE MONOCYTE [2]: 24.33 CELLS/uL | ABSOLUTE SEGMENTED NEUTROPHIL [2]: 519 CELLS/uL | BASOPHIL [2]: 0% | EOSINOPHIL [2]: 0.33% | ERYTHROCYTE COUNT [2]: 5.08 x10E6/uL | HEMATOCRIT [2]: 32.2% | HEMOGLOBIN [2]: 13.13 G/DL | LEUKOCYTE COUNT [2]: 8.17 x10E3/uL | LYMPHOCYTE [2]: 93% | MEAN CORPUSCULAR HEMOGLOBIN [2]: 25.87 pg | MEAN CORPUSCULAR HEMOGLOBIN CONCENTRATION [2]: 40.8 G/DL | MEAN CORPUSCULAR VOLUME [2]: 63.43 fL | MONOCYTE [2]: 0.33% | NEUTROPHIL [2]: 6.33% | NUCLEATED RED BLOOD CELLS [2]: 0 /100WBC | PLATELET COUNT [2]: 1033.67 x10E3/uL | ALANINE AMINOTRANSFERASE [2]: 54 u/L | ALBUMIN [2]: 4.33 G/DL | ALKALINE PHOSPHATASE [2]: 351.67 u/L | ASPARTATE AMINOTRANSFERASE [2]: 93 u/L | BLOOD UREA NITROGEN [2]: 27.33 mg/dL | CARBON DIOXIDE [2]: 32 mmol/L | CHLORIDE [2]: 102 MEQ/L | CHOLESTEROL [2]: 73 mg/dL | CREATINE PHOSPHOKINASE [2]: 813.67 u/L | CREATININE [2]: 0.48 mg/dL | GLUCOSE [2]: 143 mg/dL | LACTATE DEHYDROGENASE [2]: 189.33 u/L | LIPASE [2]: 10.33 u/L | PHOSPHORUS [2]: 12.17 mg/dL | POTASSIUM [2]: 7.02 MEQ/L | SODIUM [2]: 143.6 MEQ/L | TOTAL BILIRUBIN [2]: 0.23 mg/dL | TOTAL PROTEIN [2]: 5.93 G/DL | URIC ACID [2]: 0.93 mg/dL | ABSOLUTE BASOPHIL [3]: 0 CELLS/uL | ABSOLUTE EOSINOPHIL [3]: 140.67 CELLS/uL | ABSOLUTE LYMPHOCYTE [3]: 14776.67 CELLS/uL | ABSOLUTE MONOCYTE [3]: 166.33 CELLS/uL | ABSOLUTE SEGMENTED NEUTROPHIL [3]: 1516.33 CELLS/uL | BASOPHIL [3]: 0% | EOSINOPHIL [3]: 0.67% | ERYTHROCYTE COUNT [3]: 5.54 x10E6/uL | HEMATOCRIT [3]: 34.57% | HEMOGLOBIN [3]: 13.97 G/DL | LEUKOCYTE COUNT [3]: 16.6 x10E3/uL | LYMPHOCYTE [3]: 89.33% | MEAN CORPUSCULAR HEMOGLOBIN [3]: 25.23 pg | MEAN CORPUSCULAR HEMOGLOBIN CONCENTRATION [3]: 40.43 G/DL | MEAN CORPUSCULAR VOLUME [3]: 62.43 fL | MONOCYTE [3]: 1% | NEUTROPHIL [3]: 9% | NUCLEATED RED BLOOD CELLS [3]: 0 /100WBC | PLATELET COUNT [3]: 1315 x10E3/uL | ALANINE AMINOTRANSFERASE [3]: 42.33 u/L | ALBUMIN [3]: 4.33 G/DL | ALKALINE PHOSPHATASE [3]: 320.67 u/L | ASPARTATE AMINOTRANSFERASE [3]: 108 u/L | BLOOD UREA NITROGEN [3]: 32.33 mg/dL | CARBON DIOXIDE [3]: 24.67 mmol/L | CHLORIDE [3]: 105 MEQ/L | CHOLESTEROL [3]: 61.67 mg/dL | CREATINE PHOSPHOKINASE [3]: 994.33 u/L | CREATININE [3]: 0.19 mg/dL | GLUCOSE [3]: 134 mg/dL | LACTATE DEHYDROGENASE [3]: 1053.67 u/L | LIPASE [3]: 10 u/L | PHOSPHORUS [3]: 11.2 mg/dL | POTASSIUM [3]: 6.2 MEQ/L | SODIUM [3]: 143.9 MEQ/L | TOTAL BILIRUBIN [3]: 0.2 mg/dL | TOTAL PROTEIN [3]: 6.2 G/DL | URIC ACID [3]: 1.13 mg/dL

Reference: ChEMBL document CHEMBL3885881, “DrugMatrix”
